Assay [1] deals with Mu-type opioid receptor (Homo sapiens, UniProt P35372).
Assay [2] deals with Kappa-type opioid receptor (Homo sapiens, UniProt P41145).

Where a SMILES comes first, the peptide text is derived from it. [ ]: non-standard residue; d: D form. dNle = CCCC[C@@H](N)C(=O)O

Mu-type opioid receptor, sequence (P35372 whole entry): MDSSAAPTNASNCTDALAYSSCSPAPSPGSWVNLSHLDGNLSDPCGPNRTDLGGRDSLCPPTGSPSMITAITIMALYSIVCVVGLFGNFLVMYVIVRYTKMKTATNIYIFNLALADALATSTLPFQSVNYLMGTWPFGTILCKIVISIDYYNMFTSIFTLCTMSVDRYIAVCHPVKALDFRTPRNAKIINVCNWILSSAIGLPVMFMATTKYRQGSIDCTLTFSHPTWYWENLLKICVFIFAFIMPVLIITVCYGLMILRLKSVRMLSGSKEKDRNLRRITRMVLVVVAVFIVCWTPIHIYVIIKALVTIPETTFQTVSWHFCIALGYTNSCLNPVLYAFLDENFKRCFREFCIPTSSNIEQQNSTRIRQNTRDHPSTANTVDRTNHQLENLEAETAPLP
Kappa-type opioid receptor, sequence (P41145 whole entry): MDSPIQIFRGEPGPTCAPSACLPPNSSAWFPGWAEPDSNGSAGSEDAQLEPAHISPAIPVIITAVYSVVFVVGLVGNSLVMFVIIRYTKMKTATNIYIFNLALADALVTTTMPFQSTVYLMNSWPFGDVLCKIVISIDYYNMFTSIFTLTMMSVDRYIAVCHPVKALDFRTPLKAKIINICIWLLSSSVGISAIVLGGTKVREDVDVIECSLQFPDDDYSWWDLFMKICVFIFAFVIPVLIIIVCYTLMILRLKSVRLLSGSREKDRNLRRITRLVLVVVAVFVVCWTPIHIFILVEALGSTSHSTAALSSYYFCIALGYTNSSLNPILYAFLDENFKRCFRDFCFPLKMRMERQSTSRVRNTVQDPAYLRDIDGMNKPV

As a reminder, the Ki is the dissociation constant of the complex between target and ligand, obtained from inhibition or displacement. A higher Ki goes with lower affinity. As to `CCCC[C@@H](NC(=O)[C@@H](Cc1ccccc1)NC(=O)[C@H](N)Cc1ccccc1)C(=O)N[C@H](CCCNC(=N)N)C(N)=O` [d-Phe-d-Phe-d-Nle-d-Arg-NH2] (H-[dF][dF][dNle][dR]-NH2), the Ki turned out to be 4.57 µM in assay [1] and 0.000146 µM in assay [2].
